Assay results published in patent US20240190838A1, “LZK-TARGETING DEGRADERS AND METHODS OF USE” (The U.S.A., as represented by the Secretary, Department of …, priority 2020, published 2024).

How the values were obtained:
Type in all cases: cell-based
LZK = target: T1, LZK (Homo sapiens, UniProt O43283); test: LZK inhibition in cells monitored by downstream JNK phosphorylation (dox-induced LZK); parameters: V5 (named only in the vector); expressed in transfected cells; host or cells: CAL33 HNSCC cells, lentiviral T-REx system, induced with doxycycline; details: for duration of JNK pathway inactivation / time at which LZK activity toward JNK was inhibited: 250 nM; for LZK inhibition in cells, measured by inhibition of downstream JNK pathway activation: dox-inducible LZK in CAL33 cells
T1 sequence (O43283 1-966): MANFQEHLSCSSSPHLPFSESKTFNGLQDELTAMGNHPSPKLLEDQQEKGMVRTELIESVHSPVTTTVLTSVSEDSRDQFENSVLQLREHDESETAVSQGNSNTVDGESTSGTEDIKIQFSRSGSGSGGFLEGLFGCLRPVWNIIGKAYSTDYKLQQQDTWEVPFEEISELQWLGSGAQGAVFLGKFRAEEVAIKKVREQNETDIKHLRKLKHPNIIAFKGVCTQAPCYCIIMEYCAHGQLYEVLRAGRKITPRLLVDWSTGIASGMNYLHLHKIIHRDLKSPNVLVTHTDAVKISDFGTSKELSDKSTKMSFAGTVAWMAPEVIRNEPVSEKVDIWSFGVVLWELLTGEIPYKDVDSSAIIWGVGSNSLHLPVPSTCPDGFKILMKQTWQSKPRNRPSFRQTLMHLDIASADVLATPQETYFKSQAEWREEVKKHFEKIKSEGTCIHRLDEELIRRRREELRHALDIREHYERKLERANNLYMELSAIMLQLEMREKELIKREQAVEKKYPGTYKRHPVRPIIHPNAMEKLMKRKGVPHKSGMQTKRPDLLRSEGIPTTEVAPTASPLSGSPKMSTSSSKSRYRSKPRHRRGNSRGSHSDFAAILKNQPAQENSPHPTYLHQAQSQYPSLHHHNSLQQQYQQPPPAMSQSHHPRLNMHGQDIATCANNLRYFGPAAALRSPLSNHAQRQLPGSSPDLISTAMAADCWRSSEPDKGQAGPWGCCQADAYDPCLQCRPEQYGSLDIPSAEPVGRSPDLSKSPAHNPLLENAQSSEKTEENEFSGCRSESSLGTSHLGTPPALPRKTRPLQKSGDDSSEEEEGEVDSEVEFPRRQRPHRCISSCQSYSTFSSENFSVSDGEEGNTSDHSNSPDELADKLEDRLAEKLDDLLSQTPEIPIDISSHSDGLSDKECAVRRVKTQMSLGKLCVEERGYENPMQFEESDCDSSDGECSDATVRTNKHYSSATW
From the text: The ViraPower HiPerform T-REx Gateway Expression System (Invitrogen) was used to generate cells with tetracycline-inducible expression of LZK. In brief, wild-type (WT) or drug-resistant mutant (Q240S) LZK (cloned into pLenti6.3/TO/V5-DEST vector) and pLenti3.3/TR (for tetracycline repressor expression) were transfected into 293FT cells using Lipofectamine 2000 to generate lentiviral stock. Cell lines were generated by antibiotic selection (blasticidin [Gibco] and geneticin [Gibco]). Doxycycline (Sigma-Aldrich) was used at 1 μg/mL to induce LZK expression.
Generally, cells were plated in six-well or 35-mm plates for 24 hours, after which doxycycline was added or treatment with specific inhibitor was administered using […] for 48 hours. After appropriate treatment time, cells were washed with ice-cold phosphate-buffered saline without Ca and Mg (Quality Biological) and then lysed on ice with RIPA buffer (50 mM NaCl, 1.0% o IGEPAL® CA-630, 0.5% o sodium deoxycholate, 0.10% SDS, 50 mM Tris, pH 8.0) (Sigma-Aldrich) supplemented with protease inhibitor tablet (Sigma-Aldrich) and phosphatase inhibitor cocktails 2 and 3 (Sigma-Aldrich) followed by centrifugation at 15,000 rpm for 10 minutes at 4° C. Protein concentrations were determined from the cell lysate by using 660 nm Protein Assay Reagent (Pierce). Cell extracts were denatured, subjected to SDS-PAGE, transferred to PVDF membranes (Bio-Rad) and blocked for 2 hours using 5 bovine serum albumin (BSA) in phosphate-buffered saline and 0.10 Tween® 20 (PBS-T). The membranes were incubated with the specific antibodies overnight in […] at 4° C. followed by a 1 hour incubation with the appropriate horseradish peroxidase-conjugated secondary antibodies and signal was detected by chemiluminescence (Thermo Fisher).
A PathScan® Phospho-SAPK/JNK (Thr183/Tyr185) Sandwich ELISA Assay (Cell Signaling Technology) was used for ELISA assays following the manufacturer's protocol. In general, 500,000 cells were plated and treated with doxycycline the following day where appropriate and incubated at 37° C. for 48 hours. Cells were treated with the drug compound or control in 5% FBS media for 1 hour. After appropriate treatment time, cells were lysed on ice with 1x Cell Lysis Buffer (Cell Signaling Technology) supplemented with phosphatase and protease inhibitors (Sigma). Each diluted cell lysate was added to Phospho-SAPK/JNK (Thr183/Tyr185)Rabbit mAb Coated microwells in triplicate and incubated overnight at 4° C. Samples were treated with the following antibodies and incubated at 37° C. for 1 hour and 30 minutes, respectively: Detection Antibody and HRP-Linked secondary antibody. Samples were washed between treatments using 1× Wash Buffer according to the manufacturer's protocol. TMB substrate was added to each well and incubated at 37° C. for 10 minutes. Following this, STOPsolution was added to each well and absorbance was measured at 450 nm using iMark™ Microplate Absorbance Reader (Bio-Rad). Graphs display relative phospho-JNK levels.

BICR56 cells = test: Colony formation assay, BICR56
Experimental: (§1) Crystal violet assays were used to assess relative cell growth and survival after treatment with specific compounds. In general, cells were plated in triplicate in 12-well plates for 24 hours before drug treatments were added using 10% FBS media. The plates were incubated for 14 days, with the media and drug being replaced every 48 hours. The cells were then washed with phosphate-buffered saline and fixed in ice-cold methanol before being stained with 0.5% crystal violet (Sigma-Aldrich) in 25% methanol. Images were taken using a ChemiDoc MP Imaging System (Bio Rad), and for quantification, the crystal violet stain was dissolved in 33% acetic acid, incubated for 20 minutes with shaking, and read at 595 nm using iMark™ Microplate Absorbance Reader (Bio-Rad). Graphs display percent colony formation relative to the DMSO-treated control sample.

CAL33 cells [1] = test: MTS cell viability assay, CAL33
Experimental: A Cell Titer 96 AQueous One Solution Cell Proliferation Assay (Promega) was used for MTS assays following the manufacturer's protocol. […] MTS was added, cells were incubated for two hours, and absorbance was measured at 490 nm using iMark™ Microplate Absorbance Reader (Bio-Rad). Graphs display percent cell viability relative to the DMSO-treated control sample. EC50 values were determined using GraphPad Prism 8.

CAL33 cells [2] = test: Colony formation assay, CAL33
Experimental: as §1

LK2 cells = test: Colony formation assay, LK2
Experimental: as §1

NCI-H520 cells = test: Colony formation assay, NCI-H520
Experimental: as §1

[3] = LZK inhibitor 2, concentration not stated

`Cc1ncsc1-c1ccc([C@H](C)NC(=O)[C@@H]2C[C@@H](O)CN2C(=O)[C@@H](NC(=O)CCCCCCC(=O)N2CCC(c3cc(Nc4cc(C#N)ccn4)nc(N4CCC(F)(F)C4)c3)CC2)C(C)(C)C)cc1` [Compound 3] was tested, and the “JNK signaling inhibition by targeted degraders” value (LZK; CAL33 cells induced with doxycycline, 0-10 μM) was “inhibited JNK signaling”, the clonogenic growth (BICR56 cells; 1 μM for 14 days) was “significant decreases in clonogenic growth” and the colony formation (BICR56 cells; 2.5 μM) was “almost complete loss of colony formation”. The short-term cell viability (CAL33 cells [1]) was “reduced”, the clonogenic growth (CAL33 cells [2]; 1 μM for 14 days) was “significant decreases in clonogenic growth” and the colony formation (CAL33 cells [2]; 2.5 μM) was “almost complete loss of colony formation”. For the same compound, the LSCC cell growth (LK2 cells; 2.5 μM) was “significantly decreased LSCC cell growth” and the LSCC cell growth (NCI-H520 cells; 2.5 μM) was “significantly decreased LSCC cell growth”.
`N#Cc1ccnc(Nc2cc(C3CCN(C4COC4)CC3)cc(N3CCC(F)(F)C3)n2)c1` [GNE-3511] was tested, and the “LZK activity, as monitored by downstream JNK phosphorylation” value (LZK; 100 nM to 5 μM at 1 hour) was “inhibited LZK activity”, the “duration of JNK pathway inactivation” value (LZK) was “up to 72 hours” and the “time at which LZK activity toward JNK was inhibited” value (LZK) was ≤ 15 min. For the same compound, the “LZK inhibition in cells, measured by inhibition of downstream JNK pathway activation” value (LZK) was “potent LZK inhibitor in cells”, the “reduction in colony formation” value (BICR56 cells; 200 nM, 14 days) was ≥ 80% and the IC50 (CAL33 cells [1]; Homo sapiens, CAL-33, 72 hours, read-out: IC50, viability in short-term MTS assay) was 688 ± 114 nM. The “reduction in colony formation” value (CAL33 cells [2]; 200 nM, 14 days) was ≥ 80%, the “reduction in colony formation” value (LK2 cells; 500 nM) was 45% and the “reduction in colony formation” value (NCI-H520 cells; 500 nM) was 55%.
For `CC(=O)N1CCC(c2cc(Nc3cc(C#N)ccn3)nc(N3CCC(F)(F)C3)c2)CC1` [LZK inhibitor 2], the “duration of JNK pathway inactivation” value (LZK) was 72 h, the “time at which LZK activity toward JNK was inhibited” value (LZK) was “five” and the “concentration at which LZK activity was suppressed” value (LZK; 1 hour) was 100 nM. For the same compound, the “LZK inhibition in cells, measured by inhibition of downstream JNK pathway activation” value (LZK) was “potent LZK inhibitor”, the “JNK signaling inhibition compared with GNE-3511” value (LZK; one hour) was “inhibited JNK signaling at lower concentrations than GNE-3511” and the colony formation (BICR56 cells; [3]) was “suppressed colony formation”. For the same compound, the “rescue of drug-induced loss of viability by LZK^Q240S expression” value (CAL33 cells [1]; 72-hour MTS assay) was “rescued decreases in viability”, the colony formation (CAL33 cells [2]; [3]) was “suppressed colony formation” and the LSCC cell growth (LK2 cells; 1 μM) was “significantly decreased LSCC cell growth”. The LSCC cell growth (NCI-H520 cells; 1 μM) was “significantly decreased LSCC cell growth”.
